What was measured:
JAK-2 enzyme = JAK-2 enzyme (Homo sapiens, UniProt O60674); assay: JAK2 Inhibition Assay
Protocol: Reactions were carried out in a kinase buffer containing 100 mM HEPES (pH 7.4), 1 mM DTT, 10 mM MgCl2, 25 mM NaCl, and 0.01% BSA. Substrate concentrations in the assay were 5 μM ATP (200 uCi/μmole ATP) and 1 μM poly(Glu)4Tyr. Reactions were carried out at 25° C. and 1 nM JAK3.
To each well of a 96 well polycarbonate plate was added 1.5 μl of a candidate JAK3 inhibitor along with 50 μl of kinase buffer containing 2 μM poly(Glu)4Tyr and 10 μM ATP. This was then mixed and 50 μl of kinase buffer containing 2 nM JAK3 enzyme was added to start the reaction. After 20 minutes at room temperature (25° C.), the reaction was stopped with 50 μl of 20% trichloroacetic acid (TCA) that also contained 0.4 mM ATP. The entire contents of each well were then transferred to a 96 well glass fiber filter plate using a TomTek Cell Harvester. After washing, 60 μl of scintillation fluid was added and ^33P incorporation detected on a Perkin Elmer TopCount.

JAK3 = target: T1, JAK3 (Homo sapiens, UniProt P52333); assay: JAK3 Inhibition Assay; format: biochemical; conditions: 1 nM JAK3, 1 μM poly(Glu)4Tyr, 5 μM ATP, 25° C., 33P incorporation
T1 sequence (P52333 1-1124): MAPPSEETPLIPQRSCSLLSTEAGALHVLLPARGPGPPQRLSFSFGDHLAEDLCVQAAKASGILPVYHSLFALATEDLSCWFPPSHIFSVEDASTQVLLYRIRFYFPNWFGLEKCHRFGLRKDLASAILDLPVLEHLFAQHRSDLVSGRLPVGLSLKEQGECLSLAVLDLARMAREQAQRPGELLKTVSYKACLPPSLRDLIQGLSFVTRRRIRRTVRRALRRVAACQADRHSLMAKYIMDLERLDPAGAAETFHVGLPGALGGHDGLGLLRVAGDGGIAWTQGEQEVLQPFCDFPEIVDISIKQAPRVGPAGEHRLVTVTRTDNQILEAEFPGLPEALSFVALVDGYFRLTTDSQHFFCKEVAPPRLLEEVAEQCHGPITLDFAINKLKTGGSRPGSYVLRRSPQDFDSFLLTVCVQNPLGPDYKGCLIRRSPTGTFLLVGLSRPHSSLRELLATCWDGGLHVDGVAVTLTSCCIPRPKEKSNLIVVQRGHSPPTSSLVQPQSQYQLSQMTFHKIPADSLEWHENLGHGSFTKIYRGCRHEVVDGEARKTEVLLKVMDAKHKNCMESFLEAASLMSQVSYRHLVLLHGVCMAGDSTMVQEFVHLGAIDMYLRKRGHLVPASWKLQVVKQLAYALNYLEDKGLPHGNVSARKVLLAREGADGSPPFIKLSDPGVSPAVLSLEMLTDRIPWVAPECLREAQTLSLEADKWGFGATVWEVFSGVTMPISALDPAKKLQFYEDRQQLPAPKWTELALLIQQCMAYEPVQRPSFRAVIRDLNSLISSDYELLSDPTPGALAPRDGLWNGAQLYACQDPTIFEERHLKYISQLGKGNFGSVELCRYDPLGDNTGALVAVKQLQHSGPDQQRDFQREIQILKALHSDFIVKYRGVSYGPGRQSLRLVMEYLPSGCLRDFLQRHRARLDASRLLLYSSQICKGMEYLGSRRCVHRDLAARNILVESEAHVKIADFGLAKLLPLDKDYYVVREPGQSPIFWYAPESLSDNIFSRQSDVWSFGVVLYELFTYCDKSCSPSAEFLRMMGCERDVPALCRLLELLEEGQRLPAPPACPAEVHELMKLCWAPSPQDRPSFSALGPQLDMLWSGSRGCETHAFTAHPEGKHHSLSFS

Sequence of JAK-2 enzyme (O60674 whole entry): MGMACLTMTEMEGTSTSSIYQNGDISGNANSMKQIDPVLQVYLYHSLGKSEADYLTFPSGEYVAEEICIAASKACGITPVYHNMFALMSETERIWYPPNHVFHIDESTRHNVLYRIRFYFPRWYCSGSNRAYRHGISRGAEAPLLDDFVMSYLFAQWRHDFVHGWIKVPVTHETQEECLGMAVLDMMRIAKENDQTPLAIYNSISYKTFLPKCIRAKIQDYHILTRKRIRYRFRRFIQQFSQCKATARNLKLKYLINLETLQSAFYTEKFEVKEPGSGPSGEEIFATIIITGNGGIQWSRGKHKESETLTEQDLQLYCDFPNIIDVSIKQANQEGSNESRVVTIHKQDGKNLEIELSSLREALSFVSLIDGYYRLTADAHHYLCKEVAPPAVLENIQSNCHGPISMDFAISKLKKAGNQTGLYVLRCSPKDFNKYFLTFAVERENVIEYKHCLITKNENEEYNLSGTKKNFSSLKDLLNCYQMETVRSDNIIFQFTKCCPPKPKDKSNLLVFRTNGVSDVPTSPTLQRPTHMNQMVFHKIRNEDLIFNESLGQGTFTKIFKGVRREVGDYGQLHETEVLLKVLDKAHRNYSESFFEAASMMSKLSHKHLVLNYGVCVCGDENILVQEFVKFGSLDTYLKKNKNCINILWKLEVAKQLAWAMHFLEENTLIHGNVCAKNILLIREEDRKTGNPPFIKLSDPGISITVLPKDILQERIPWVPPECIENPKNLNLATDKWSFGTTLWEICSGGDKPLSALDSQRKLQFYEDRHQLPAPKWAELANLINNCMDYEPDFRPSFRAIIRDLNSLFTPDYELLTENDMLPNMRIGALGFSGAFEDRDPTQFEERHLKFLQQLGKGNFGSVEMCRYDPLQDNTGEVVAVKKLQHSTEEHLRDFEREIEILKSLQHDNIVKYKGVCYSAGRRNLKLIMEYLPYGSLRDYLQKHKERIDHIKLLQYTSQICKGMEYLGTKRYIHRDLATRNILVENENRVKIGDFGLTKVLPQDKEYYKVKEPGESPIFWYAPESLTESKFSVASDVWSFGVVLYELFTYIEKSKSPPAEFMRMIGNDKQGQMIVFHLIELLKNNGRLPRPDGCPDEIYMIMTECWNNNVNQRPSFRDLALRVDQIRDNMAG

Row | SMILES | Ki (JAK-2 enzyme) [nM] | Ki (JAK3) [nM]
1 | C[C@H](Nc1cc(-c2c(N)nn3cccnc23)nc(OCCN2CCCC2=O)n1)c1ccc(F)cc1F [Compound 128] | < 10 | 10 to 100
2 | CC[C@@H](Nc1cc(-c2c(N)nn3cccnc23)ncn1)c1ccc(F)cc1F [Compound 88] | < 10 | 10 to 100
3 | CNC(=O)CC(Nc1cc(-c2cnn3cccnc23)ncn1)c1ccc(F)cc1 (stereo not shown) [Compound 141] | < 10 | 10 to 100
4 | C[C@H](Nc1cc(-c2c(N)nn3cccnc23)nc(OCC2CCC2)n1)c1ccc(F)cc1 [Compound 148] | 10 to 100 | 100 to 500
5 | O=C(Nc1ccnc(-c2cnn3cccnc23)c1)c1ccc(F)cc1F [Compound 229] | 100 to 500 | 500 to 5000
6 | CC[C@H](Nc1cc(-c2c(N)nn3cccnc23)ncn1)c1ccc(F)c(F)c1 [Compound 62] | < 10 | 10 to 100
7 | C[C@H](Nc1cc(-c2cnn3cccnc23)nc(OCC2CCCN2)n1)c1ccc(F)cc1F (stereo partly shown) [Compound 216] | < 10 | 100 to 500
8 | CCC[C@H](Nc1cc(-c2c(N)nn3cccnc23)nc(N2CCOCC2)n1)c1ccc(F)cc1 [Compound 103] | 10 to 100 | 100 to 500
9 | C[C@H](Nc1cc(-c2c(N)nn3cccnc23)nc(OC[C@H]2CO2)n1)c1ccc(F)cc1 [Compound 159] | < 10 | 100 to 500
10 | COC(C)(C)CCOc1nc(N[C@@H](C)c2ccc(F)cc2F)cc(-c2cnn3cccnc23)n1 [Compound 194] | 10 to 100 | 100 to 500
11 | C[C@H](Nc1cc(-c2cnn3cccnc23)ncn1)c1ccc(F)cc1F [Compound 117] | < 10 | 10 to 100
12 | C[C@H](Nc1cc(-c2c(N)nn3cccnc23)nc(O)n1)c1ccc(F)cc1 [Compound 161] | < 10 | 10 to 100
13 | COC(C)(C)CCOc1nc(N[C@@H](C)c2ccc(F)cc2)cc(-c2c(N)nn3cccnc23)n1 [Compound 178] | < 10 | 10 to 100
14 | C[C@H](Nc1cc(-c2cnn3cccnc23)nc(OCCN(C)C)n1)c1ccc(F)cc1F [Compound 197] | < 10 | 10 to 100
15 | COCCOc1nc(N[C@@H](C)c2ccc(F)cc2F)cc(-c2c(N)nn3cccnc23)n1 [Compound 126] | < 10 | < 10
16 | C[C@H](Nc1cc(-c2cnn3cccnc23)nc(NC(=O)CCN2CCCC2=O)n1)c1ccc(F)cc1F [Compound 185] | < 10 | 100 to 500
17 | C[C@H](Nc1cc(-c2c(N)nn3cccnc23)nc(C2CC2)n1)c1ccc(F)cc1 [Compound 91] | < 10 | 10 to 100
18 | C[C@H](Nc1cc(-c2c(N)nn3cccnc23)nc(OCC2(C)CC2)n1)c1ccc(F)cc1 [Compound 143] | 10 to 100 | 100 to 500
19 | CSc1nc(N[C@@H](C)c2ccc(F)cc2)cc(-c2c(N)nn3cccnc23)n1 [Compound 92] | < 10 | 10 to 100
20 | CCC[C@H](Nc1cc(-c2cnn3cccnc23)ncn1)c1ccc(F)cc1F [Compound 122] | < 10 | 10 to 100
21 | CC(C)OCCOc1nc(N[C@@H](C)c2ccc(F)cc2)cc(-c2c(N)nn3cccnc23)n1 [Compound 149] | < 10 | 10 to 100
22 | CCC[C@H](Nc1cc(-c2c(N)nn3ccc(C(F)(F)F)nc23)ncn1)c1ccc(F)cc1F [Compound 137] | 100 to 500 | 100 to 500
23 | C[C@H](Nc1cc(-c2cnn3cccnc23)nc(N)n1)c1ccc(F)cc1F [Compound 147] | < 10 | 10 to 100
24 | CCCOc1nc(N[C@@H](C)c2ccc(F)cc2)cc(-c2c(N)nn3cccnc23)n1 [Compound 153] | < 10 | 10 to 100
25 | C[C@H](Nc1cc(-c2c(N)nn3cccnc23)nc(N2CC[C@H](F)C2)n1)c1ccc(F)cc1 [Compound 191] | 10 to 100 | 100 to 500
26 | COCCNc1nc(N[C@@H](C)c2ccc(F)cc2)cc(-c2c(N)nn3cccnc23)n1 [Compound 119] | < 10 | 10 to 100
27 | CNCCOc1nc(N[C@@H](C)c2ccc(F)cc2F)cc(-c2cnn3cccnc23)n1 [Compound 199] | < 10 | 10 to 100

Row | SMILES | Ki (JAK-2 enzyme) [nM] | Ki (JAK3) [nM]
28 | CC/C=C\COc1nc(N[C@@H](C)c2ccc(F)cc2)cc(-c2c(N)nn3cccnc23)n1 [Compound 165] | 10 to 100 | 100 to 500
29 | C[C@H](Nc1cc(-c2c(N)nn3cccnc23)nc(N2CCC(N(C)C)C2)n1)c1ccc(F)cc1 (stereo partly shown) [Compound 190] | < 10 | 10 to 100
30 | COc1nc(N[C@@H](C)c2ccc(F)cc2F)cc(-c2c(N)nn3cccnc23)n1 [Compound 132] | < 10 | < 10
31 | CCC(=O)Nc1nc(N[C@@H](C)c2ccc(F)cc2F)cc(-c2cnn3cccnc23)n1 [Compound 188] | < 10 | 100 to 500
32 | C[C@H](Nc1cc(-c2c(N)nn3cccnc23)nc(OCC2CCOC2)n1)c1ccc(F)cc1F (stereo partly shown) [Compound 130] | < 10 | 10 to 100
33 | CCC#CC(C)Oc1nc(N[C@@H](C)c2ccc(F)cc2)cc(-c2c(N)nn3cccnc23)n1 (stereo partly shown) [Compound 179] | 10 to 100 | 500 to 5000
34 | C[C@H](Nc1cc(-c2cnn3cccnc23)nc(OCCN2CCCC2=O)n1)c1ccc(F)cc1F [Compound 209] | < 10 | 10 to 100
35 | C[C@H](Nc1cc(-c2c(N)nn3cccnc23)nc(S(C)(=O)=O)n1)c1ccc(F)cc1F [Compound 111] | < 10 | < 10
36 | C[C@H](Nc1cc(-c2cnn3cccnc23)nc(NC(=O)CN2CCOCC2)n1)c1ccc(F)cc1F [Compound 186] | < 10 | 100 to 500
37 | O=C(Nc1ccnc(-c2cnn3cccnc23)c1)c1ccc(F)cc1 [Compound 227] | 100 to 500 | 500 to 5000
38 | C[C@H](Nc1ccnc(-c2cnn3cccnc23)n1)c1ccc(F)cc1 [Compound 224] | 10 to 100 | 100 to 500
39 | CC(C)[C@@H](Nc1cc(-c2c(N)nn3cccnc23)nc(S(C)(=O)=O)n1)c1ccc(F)cc1F [Compound 113] | 100 to 500 | 500 to 5000
40 | CSCCOc1nc(N[C@@H](C)c2ccc(F)cc2F)cc(-c2cnn3cccnc23)n1 [Compound 212] | < 10 | 10 to 100
41 | Nc1nn2cccnc2c1-c1cc(NCc2csc3ccccc23)ncn1 [Compound 31] | 10 to 100 | 100 to 500
42 | C[C@H](Nc1cc(-c2cnn3cccnc23)nc(OCCC2CCCCN2)n1)c1ccc(F)cc1F (stereo partly shown) [Compound 198] | < 10 | 10 to 100
43 | C[C@H](Nc1cc(-c2c(N)nn3cccnc23)nc(N2CC[C@@H](F)C2)n1)c1ccc(F)cc1 [Compound 189] | < 10 | 100 to 500
44 | C=C(C)COc1nc(N[C@@H](C)c2ccc(F)cc2)cc(-c2c(N)nn3cccnc23)n1 [Compound 175] | < 10 | 100 to 500
45 | CCC[C@H](Nc1cc(-c2c(N)nn3cccnc23)nc(S(C)(=O)=O)n1)c1ccc(F)cc1 [Compound 110] | < 10 | 10 to 100
46 | CCC[C@H](Nc1cc(-c2c(N)nn3cccnc23)ncn1)c1ccc(F)c(F)c1 [Compound 98] | < 10 | 10 to 100
47 | C[C@H](Nc1cc(-c2cnn3cccnc23)nc(OCC2CCOC2)n1)c1ccc(F)cc1F (stereo partly shown) [Compound 222] | < 10 | 10 to 100
48 | Nc1nn2cccnc2c1-c1cc(NCc2ccco2)ncn1 [Compound 24] | 10 to 100 | 10 to 100
49 | COCCN(C)c1nc(N[C@@H](C)c2ccc(F)cc2F)cc(-c2c(N)nn3cccnc23)n1 [Compound 133] | 10 to 100 | 100 to 500
50 | C[C@@H](Oc1cc(-c2c(N)nn3cccnc23)ncn1)c1ccccc1 [Compound 67] | 10 to 100 | 100 to 500
51 | CCC[C@H](Nc1cc(-c2c(N)nn3cccnc23)nc(N2CCOCC2)n1)c1ccc(F)cc1F [Compound 107] | 10 to 100 | 100 to 500
52 | C[C@H](Oc1cc(-c2c(N)nn3cccnc23)ncn1)c1ccccc1 [Compound 68] | < 10 | 10 to 100
53 | Nc1nn2cccnc2c1-c1cc(NC2(c3ccc(F)cc3)CC2)ncn1 [Compound 90] | < 10 | 10 to 100

From US8937064B2, “Pyrazolo[1,5-a]pyrimidines useful as JAK2 inhibitors” (Vertex Pharmaceuticals Incorporated, priority 2007, dated 2015)
